For one assay, the target named is T1, PRMT5/MEP50 (Homo sapiens, UniProt O14744).
T1 construct: Full-length human PRMT5 (NP_006100)
Kind of assay: PRMT5/MEP50 enzyme assay on peptide substrates (3H-SAM Flashplate). To be noted: PRMT5/MEP50 10 nM, H4 1-15aa peptide 100 nM, 3H-SAM 1 μM. Type of assay: biochemical.

Assay [1] relates to Symmetric di-methyl arginine in Z-138 cells. The assay is described as follows: Z-138 methylation assay, ELISA for detection of symmetric di-methyl arginine. Type of assay: cell-based. To be noted: Homo sapiens. The procedure: General reagents. […] Iscove's Modified Dulbecco's Medium (IMDM), Horse serum, penicillin-streptomycin, PBS and TMB-ELISA substrate solution were purchased from ThermoFisher Scientific. Symmetric di-methyl arginine antibody was purchased from Cell Signaling Technologies.Anti-SNRPD3/SmD3 antibody was purchased from Sigma-Aldrich.
ELISA for detection of Symmetric di-methyl arginine. […] A compound source plate was prepared by performing ten-point 3-fold dilution in DMSO, such that the final top concentration of the compound was 10 μM, and DMSO was 0.3%. The total volume of compounds added was 20 μL. The cells were incubated for 96 h at 37° C., 5% CO2. Z-138 cells were directly lysed in media with 3× Lysis Buffer (1×: 10 mM HEPES pH7.9, 5 mM MgCl2, 1M NaCl, 0.25M Sucrose, 1% Triton X-100, 1 mM PMSF, Protease & Phosphatase inhibitors). […] Plates were incubated at room temperature for a minimum of 3 h and then washed with PBS-Tween 20 (0.05%). The plates were blocked with 5% BSA at room temperature for 1 h, washed with PBS-Tween 20 and incubated with primary antibody at 4 C overnight.
On the technique in general: An ELISA detects its analyte on a solid surface through an enzyme-linked reagent.

In the next assay the test system is Z-138 cells. The assay is described as follows: Z-138 long term proliferation assay (Cell Titer Glo). Type of assay: cell-based. To be noted: Homo sapiens; for GI50: 192 h, Z-138 cells, cell viability, day 8, read-out: PRMT5 Z138 GI50 Day 8 μM; for IC50: Z-138, 192 h, summary of Table 1, read-out: IC50 value (all the three assays): Z138 GI50 Day 8. A digest of the protocol: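 Z-138 cells exposed to ten-point 3-fold dilutions (top 10 μM, 0.3% DMSO) for 96 h at 37° C., 5% CO2, then re-dosed for four more days.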
In general terms: ATP-based viability assays read luminescence as a measure of living cells.

Setting [2] is: Z-138, 96 h, summary of Table 1, read-out: IC50 value (all the three assays): Z138 SDMA ELISA Day 4.
Setting [3] is: Z-138 cells, 96 h (day 4), read-out: PRMT5 Z138 SDMA ELISA Day 4 μM.

Read-outs that look alike come from different tables or passages of the source.

T1 sequence (O14744 whole entry): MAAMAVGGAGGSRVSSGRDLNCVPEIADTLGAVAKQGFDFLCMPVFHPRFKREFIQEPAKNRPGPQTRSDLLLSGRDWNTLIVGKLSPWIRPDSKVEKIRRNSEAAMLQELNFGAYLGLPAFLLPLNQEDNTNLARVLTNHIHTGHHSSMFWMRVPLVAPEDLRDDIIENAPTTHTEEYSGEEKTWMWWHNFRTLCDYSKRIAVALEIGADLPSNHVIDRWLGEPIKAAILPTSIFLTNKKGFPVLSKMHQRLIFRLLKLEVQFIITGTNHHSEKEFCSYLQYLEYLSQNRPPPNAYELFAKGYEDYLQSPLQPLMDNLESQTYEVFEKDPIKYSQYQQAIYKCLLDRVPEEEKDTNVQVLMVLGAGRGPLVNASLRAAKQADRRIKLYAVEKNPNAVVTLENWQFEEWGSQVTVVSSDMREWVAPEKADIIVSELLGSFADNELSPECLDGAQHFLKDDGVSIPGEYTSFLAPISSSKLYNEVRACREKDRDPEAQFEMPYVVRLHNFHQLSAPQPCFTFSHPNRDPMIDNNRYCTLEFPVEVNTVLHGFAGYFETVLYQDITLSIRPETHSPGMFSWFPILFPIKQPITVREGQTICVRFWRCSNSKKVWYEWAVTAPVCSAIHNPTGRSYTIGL
T1 sequence (Q9BQA1 whole entry partner): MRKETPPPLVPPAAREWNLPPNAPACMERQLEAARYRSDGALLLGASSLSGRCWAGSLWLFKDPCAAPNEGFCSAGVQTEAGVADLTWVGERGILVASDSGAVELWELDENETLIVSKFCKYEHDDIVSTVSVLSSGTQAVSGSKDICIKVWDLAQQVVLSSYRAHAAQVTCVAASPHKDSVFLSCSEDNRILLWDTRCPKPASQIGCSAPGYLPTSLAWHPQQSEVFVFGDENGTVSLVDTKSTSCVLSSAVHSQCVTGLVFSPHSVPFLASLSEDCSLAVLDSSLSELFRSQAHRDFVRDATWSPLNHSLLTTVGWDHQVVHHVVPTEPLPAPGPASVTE

By GI50 is commonly meant the concentration at which growth is held to half of that of the control. As to `CC(C)c1ccc2nc(C(=O)NCC(O)CN3CCc4ccccc4C3)cn2c1` (stereo in doubt) [Example 12, (S)—N-(3-(3,4-dihydroisoquinolin-2(1H)-yl)-2-hydroxypropyl)-6-isopropylimidazo [1,2-a]pyridine-2-carboxamide], the IC50 (against PRMT5/MEP50; in assay [1] (setting [2]); in assay [1] (setting [3]); with Z-138 cells) was 10 to 1000 nM each time. Besides, the GI50 in the assay on Z-138 cells lay within 10 to 1000 nM.

Consider `CC(C)Cn1cc(-c2ccc3nc(C(=O)NCC(O)CN4CCc5ccccc5C4)cn3c2)cn1` (stereo in doubt) [Example 18, (S)—N-(3-(3,4-dihydroisoquinolin-2(1H)-yl)-2-hydroxypropyl)-6-(1-isobutyl-1H-pyrazol-4-yl)imidazo[1,2-a]pyridine-2-carboxamide], for which the IC50 (against PRMT5/MEP50; in assay [1] (setting [2]); in assay [1] (setting [3]); with Z-138 cells) was 10 to 1000 nM in each case. For the same compound, the concentration for 50% growth inhibition (GI50) with Z-138 cells was in the range of 10 to 1000 nM.

For the compound `O=C(NCC(O)CN1CCc2ccccc2C1)c1cn2cc(C(F)(F)F)ccc2n1` (centres unmarked) [Example 1, N-(3-(3,4-dihydroisoquinolin-2(1H)-yl)-2-hydroxypropyl)-6-(trifluoromethyl)imidazo[1,2-a]pyridine-2-carboxamide], the IC50 (against PRMT5/MEP50; in assay [1] (setting [2]); in assay [1] (setting [3]); in the assay with Z-138 cells) was 10 to 1000 nM throughout. For the same compound, in the assay on Z-138 cells, the GI50 lay within 10 to 1000 nM.

As to `O=C(NC[C@H](O)CN1CCc2ccccc2C1)c1cn2c(n1)CCC(C1CC1)C2` (stereo partly drawn) [Example 104, 6-cyclopropyl-N—((S)-3-(3,4-dihydroisoquinolin-2(1H)-yl)-2-hydroxypropyl)-5,6,7,8-tetrahydroimidazo[1,2-a]pyridine-2-carboxamide], the IC50 in assay [1] (setting [3]) was 10 to 1000 nM. For the same compound, the GI50 in the assay with Z-138 cells fell in the range of 1000 to 5000 nM.

On to `CCCC1CCn2cc(C(=O)NCC(O)CN3CCc4ccccc4C3)nc2C1` (centres unmarked) [Example 105, N-(3-(3,4-dihydroisoquinolin-2(1H)-yl)-2-hydroxypropyl)-7-propyl-5,6,7,8 tetrahydroimidazo[1,2-a]pyridine-2-carboxamide], for which the IC50 in assay [1] (setting [3]) lay in the range of 10 to 1000 nM. For the same compound, the GI50 in the assay on Z-138 cells lay within 1000 to 5000 nM.

Compound `O=C(NC[C@H](O)[C@@H](O)CN1CCc2ccccc2C1)c1cn2c(n1)CCC(C(F)(F)F)C2` (stereo partly drawn) [Example 117, N-((2S,3S)-4-(3,4-dihydroisoquinolin-2(1H)-yl)-2,3-dihydroxybutyl)-6-(trifluoromethyl)-5,6,7,8-tetrahydroimidazo[1,2-a]pyridine-2-carboxamide] gave an IC50 at PRMT5/MEP50 of 10 to 1000 nM. Moreover, the GI50 with Z-138 cells was 10 to 1000 nM.

On PRMT5/MEP50, `CN(C[C@H](O)CN1CCc2ccccc2C1)C(=O)c1cn2c(n1)CCC(C(F)(F)F)C2` (some centres unmarked) [Example 119] came in with an IC50 of 10 to 1000 nM. In addition, the GI50 with Z-138 cells lay within 10 to 1000 nM.

The compound `Cn1cc([C@H]2CCc3nc(C(=O)NC[C@H](O)CN4CCc5ccccc5C4)cn3C2)cn1` [Example 120A, (R)—N—((S)-3-(3,4-dihydroisoquinolin-2(1H)-yl)-2-hydroxypropyl)-6-(1-methyl-1H-pyrazol-4-yl)-5,6,7,8-tetrahydroimidazo[1,2-a]pyridine-2-carboxamide] showed an IC50 at PRMT5/MEP50 of 10 to 1000 nM. The GI50 in the assay on Z-138 cells fell in the range of 10 to 1000 nM.

With `Cn1cc([C@@H]2CCc3nc(C(=O)NC[C@H](O)CN4CCc5ccccc5C4)cn3C2)cn1` [Example 120B, (S)—N—((S)-3-(3,4-dihydroisoquinolin-2(1H)-yl)-2-hydroxypropyl)-6-(1-methyl-1H-pyrazol-4-yl)-5,6,7,8-tetrahydroimidazo[1,2-a]pyridine-2-carboxamide], the IC50 against PRMT5/MEP50 fell in the range of 10 to 1000 nM. Besides, the GI50 in the assay with Z-138 cells was in the range of 1000 to 5000 nM.

On to `N#Cc1ccc2nc(C(=O)NC[C@H](O)CN3CCc4ccccc4C3)cn2c1` [Example 123, (S)-6-cyano-N-(3-(3,4-dihydroisoquinolin-2(1H)-yl)-2-hydroxypropyl)imidazo[1,2-a]pyridine-2-carboxamide], for which the IC50 against PRMT5/MEP50 is 10 to 1000 nM. Moreover, the GI50 with Z-138 cells fell in the range of 10 to 1000 nM.

For the origin of these results see patent publication US11459338B2, “Heterocyclic compounds as PRMT5 inhibitors” (JUBILANT EPISCRIBE LLC, priority 2018, dated 2022).
